In patent publication US20230346864A1, “Compositions and Methods for Joint Health” (Innophos, LLC, priority 2020, published 2023):

Experiments:
IL-1β = test: CIA rats: serum IL-1β ELISA; format: in vivo, Rat; details: Methotrexate 0.5 mg/kg
Source text: (§1) Collagen induced arthritis (CIA) in rats was developed and utilized to evaluate efficacy of orally administered cashew skin extract for three weeks post disease induction. The study included seven groups of rats (n=9 rats/group). The rats were purpose bred male Sprague—Dawley rats (7-8 weeks old, Charles River Laboratories Inc., Wilmington, MA). Animals were acclimated for two weeks to achieve the required body weight before being assigned randomly to their respective group. Rats (3/cage) were housed in a polypropylene cage and individually identified by numbers on their tail. Individual cages were identified with a cage card indicating project number, test article, dose level, group, and animal number. […]
During the in-life period, arthritis severity index, paw thickness, ankle diameter and pain sensitivity were monitored. […] Urinary cartilage degradation marker (CTX-II), proinflammatory cytokines (TNF-α, IL-1β, and IL-6), cartilage synthesis marker (PIIANP) and matrix degrading proteases (MMP13) were measured. […]
ELISA Assay. The presence of cytokines IL-1β/IL-6/TNF-α was measured using the Rat IL-1β/IL-6/TNF-α Quantikine ELISA kit (R&D Systems, Minneapolis, Minnesota) as follows. […] After the addition of stop solution, the absorbance was read at 450 nm and the concentration of IL-1β/IL-6/TNF-α calculated based on the absorbance readings of an IL-1β/IL-6/TNF-α standard curve.

CTX-II = test: CIA rats: urine CTX-II ELISA; format: in vivo, Rat; details: Methotrexate 0.5 mg/kg
Source text: (§2) Collagen induced arthritis (CIA) in rats was developed and utilized to evaluate efficacy of orally administered cashew skin extract for three weeks post disease induction. The study included seven groups of rats (n=9 rats/group). The rats were purpose bred male Sprague—Dawley rats (7-8 weeks old, Charles River Laboratories Inc., Wilmington, MA). Animals were acclimated for two weeks to achieve the required body weight before being assigned randomly to their respective group. Rats (3/cage) were housed in a polypropylene cage and individually identified by numbers on their tail. Individual cages were identified with a cage card indicating project number, test article, dose level, group, and animal number. Harlan Soft cob bedding (Envigo Tekland 7087, Envigo, Indianapolis, Indiana) was used and changed at least twice/week. Animals were provided with fresh water and rodent chow diet (Teklad 2018, Envigo, Indianapolis, Indiana) ad libitum and housed in a temperature-controlled room (22.2° C.) on a 12-h light-dark cycle throughout the study.
During the in-life period, arthritis severity index, paw thickness, ankle diameter and pain sensitivity were monitored. Urine and serum were collected at the end of study for biomarker analysis. […] Urinary cartilage degradation marker (CTX-II), proinflammatory cytokines (TNF-α, IL-1β, and IL-6), cartilage synthesis marker (PIIANP) and matrix degrading proteases (MMP13) were measured.
Assay. Rat urine samples were diluted 1:3 and the presence of CTX-II was measured using the Rat CTX-II ELISA kit from Mybiosource as follows. […] After the addition of stop solution, the absorbance was read at 450 nm, multiplied by dilution factor, and the concentration of CTX-II calculated based on the absorbance readings of a CTX-II standard curve.
Creatine—CTX-II amount was normalized to the amount of Creatinine in the urine using a Creatinine Parameter Assay Kit (R&D Systems) as follows. […] Absorbance was read at 492 nm, and Creatinine amount in urine was calculated based on the absorbance readings of a Creatinine standard curve. […]

PIIANP = test: CIA rats: serum PIIANP ELISA; format: in vivo, Rat; details: Methotrexate 0.5 mg/kg
Source text: as §1
During the in-life period, arthritis severity index, paw thickness, ankle diameter and pain sensitivity were monitored. […] Urinary cartilage degradation marker (CTX-II), proinflammatory cytokines (TNF-α, IL-1β, and IL-6), cartilage synthesis marker (PIIANP) and matrix degrading proteases (MMP13) were measured.
ELISA Assay. The presence of PIIANP was measured using the Rat Procollagen Type IIA N-Prop (PIIANP) ELISA kit (MyBiosource, San Diego, California) as follows. […] After the addition of stop solution, the absorbance was read at 450 nm and the concentration of PIIANP calculated based on the absorbance readings of a PIIANP standard curve.

[1] = test system: collagen-induced arthritis (CIA) model in rats; test: CIA rats: ankle diameter; format: in vivo, Sprague—Dawley rats; details: days 7 to 21; Methotrexate 0.5 mg/kg
Source text: as §2
(§3) The study rats were randomized and administered one of seven study articles as noted in Table 4— […]
(§4) Rats were evaluated for arthritis index before injection of a booster dose. […]
(§5) During the in-life period, arthritis severity index, paw thickness, ankle diameter and pain sensitivity were monitored. […]

[2] = test system: collagen-induced arthritis (CIA) model in rats; test: CIA rats: pain sensitivity (Randall—Selitto probe); format: in vivo, Sprague—Dawley rats; details: Methotrexate 0.5 mg/kg; range over time points
Source text: as §2, §3, §4, §5

[3] = test system: collagen-induced arthritis (CIA) model in rats; test: CIA rats: ankle joint histopathology (modified Mankin system); format: in vivo, Sprague—Dawley rats; details: Methotrexate 0.5 mg/kg
Source text: as §2
During the in-life period, arthritis severity index, paw thickness, ankle diameter and pain sensitivity were monitored. Urine and serum were collected at the end of study for biomarker analysis. Necropsy was carried out on day 22 for all the groups post priming. At necropsy, the ankle joint from each rat was collected for histopathology analysis. Urinary cartilage degradation marker (CTX-II), proinflammatory cytokines (TNF-α, IL-1β, and IL-6), cartilage synthesis marker (PIIANP) and matrix degrading proteases (MMP13) were measured.
Procedures and Evaluations. At necropsy, the ankle joint was carefully dissected out, fixed in 10% buffered formalin, and sent to Nationwide Histology (Veradale, WA, USA) for further histopathology analysis. The fixed specimens were then decalcified with Calci-Clear Rapid for one and a half days and embedded in paraffin. Standardized 5 μm serial sections were obtained from each rat and stained with hematoxylin and eosin (HE) and Safranin 0-fast green to enable evaluation of proteoglycan content. A modified Mankin system (Mankin et al., 1981) was used to score structural and cellular alterations of articular components as indications of disease progression and/or treatment efficacy. The histological analysis was conducted by a certified Pathologist at Nationwide Histology.

[4] = test system: collagen-induced arthritis (CIA) model in rats; test: CIA rats: paw thickness / paw edema; format: in vivo, Sprague—Dawley rats; details: day 7-day 21; Methotrexate 0.5 mg/kg; vs vehicle treated CIA
Source text: as §2, §3, §4, §5

[5] = test system: collagen-induced arthritis (CIA) model in rats; test: CIA rats: arthritis severity index; format: in vivo, Sprague—Dawley rats; details: Methotrexate 0.5 mg/kg; vehicle CIA rats day 10
Source text: as §2, §3, §4, §5

[6] = test system: potato 5-Lipoxygenase enzyme; test: 5-LOX inhibition, Lipoxygenase Inhibitor Screening Assay Kit; format: biochemical; details: at 100 μM
Experimental: Cashew testa extract was tested for 5-LOX inhibition using the Lipoxygenase Inhibitor Screening Assay Kit (available from Cayman Chemical, Ann Arbor, Michigan, US) and potato 5-Lipoxygenase enzyme (available from Cayman Chemical). This kit measures hydroperoxides produced in the lipoxygenation reaction.
The extracts were dissolved in methanol to final working concentrations. 5-LOX enzyme, Chromagen, and Linoleic Acid solutions were prepared immediately before use. Nordihydroguaiaretic acid (‘NDGA’) was used as a positive control. 5-LOX enzyme was added to the test samples and controls and incubated for five minutes at room temperature to allow for enzyme/inhibitor interaction. Linoleic acid substrate was added to the plate to initiate the reaction, and the plate was then shaken at room temperature for 10 minutes. Chromagen was added to visualize the hydroperoxides formed during the reaction and the plate was shaken at room temperature for another five minutes. The absorbance was then read at 492 nm. Percent inhibition of the extract concentration was calculated in comparison to the uninhibited control wells.
Cashew testa extract was tested for its 5-LOX inhibition activity at 10 different concentrations (0.7, 1.5, 3.0, 6.0, 11.9, 15.6, 31.2, 62.5, 125.0 and 250.0 μg/mL).

Structure (SMILES): CN(Cc1cnc2nc(N)nc(N)c2n1)c1ccc(C(=O)N[C@@H](CCC(=O)O)C(=O)O)cc1 [MTX, Methotrexate]
- reduction in serum level of IL-1β vs CIA rats treated with vehicle (IL-1β): 86.4%
- urine CTX-II, cartilage protection vs vehicle treated CIA rats (CTX-II; normalized with creatinine): 27.2%
- urine CTX-II, cartilage protection vs vehicle treated CIA rats (CTX-II; normalized with protein): 22.9%
- urine CTX-II, cartilage protection vs vehicle treated CIA rats (CTX-II; raw data): up to 53.8%
- increase in serum PIIANP compared to CIA+vehicle (PIIANP): 41%
- reduction in ankle diameter, area under the curve [1]: 89.1%
- pain tolerance vs Vehicle treated CIA [2]: 14.1-67.1%
- GAG loss, lower than vehicle [3]: 50.7%
- bone erosion, lower than vehicle [3]: 71.2%
- cartilage destruction, lower than vehicle [3]: 50.7%
- inflammation, lower than vehicle [3]: 55.8%
- reduction in paw edema, area under the swelling curve [4]: 90.2%
- disease onset, day after priming [5]: 14

Structure (SMILES): CC(Cc1ccc(O)c(O)c1)C(C)Cc1ccc(O)c(O)c1 (centres unmarked) [NDGA, Nordihydroguaiaretic acid]
- 5-LOX enzyme inhibition [6]: 100%
